# According to patent US20050032904A1, “Composition and use of allylamine derivatives” (priority 2003, published 2005):
# Key:
# [1] = tested on: cell cycle regulatory proteins in COLO 205 cells; test: Western blot of cell cycle regulatory proteins; assay type: cell-based, human
# Method: They were then returned to culture media supplemented with 10% FCS and 0.05% DMSO with or without TB (60 μM), and at various times thereafter, they were harvested for protein extraction and Western blot analysis. Based on the FACS analysis in the COLO 205 cells, 0, 15, 18 and 24 h after release from quiescence represents the G0/G1, S, G2/M and 2nd G0/G1 phase of the cell cycle, respectively. (FIG. 2A). Accordingly, these time points were selected for protein extraction and Western blot analysis to examine the effects of TB on the expression of cell cycle regulatory proteins. In FIG. 6, (A) In the DMSO-treated COLO 205, 10% FCS caused a transit increase in p21/Cip1 protein (upper panel). […] The COLO 205 cells were synchronized with 0.04% FCS for 24 h, and then released into complete medium (10% FCS) containing TB (60 μM) for the indicated time points. COLO 205 cells were also treated with DMSO (0.05%, v/v) as a control group. Protein extracts (100 μg/lane) were separated by SDS-PAGE, probed with specific antibodies, and detected using the NBT/BCIP system. […] (LaBaer J, et. al., Genes & Development 1997;11(7):847-62.).
# In contrast, TB induced apoptosis in the HL 60 (p53 null) and Hep 3B (p53 partial deleted). […] To further test this hypothesis, the dose effects of TB on the levels of cell cycle regulatory protein were conducted in four different human cancer cell lines, COLO 205 (p53 wild type), HT 29 (p53 His^273 mutant), Hep 3B (p53 partial deleted) and HL 60 (p53 null). […] The cells were rendered quiescent for 24 h, and then challenged with 10% FCS and treated with various concentrations of TB (60-150 μM) for additional 15 h. Protein extracts (100 μg/lane) were separated by SDS-PAGE, probed with specific antibodies, and detected using the NBT/BCIP system. Membranes were also probed with anti-GAPDH antibody to correct for differences in protein loading.
# As previously described (Chen R J, et. al., Toxicology & Applied Pharmacology 2000;169(2):132-41.), the frozen tumor was pulverized in liquid N2, and then mixed with lysis buffer (Tris-HCl 0.5 M, pH 6.8, SDS 0.4%). For cell cultures, the cells were seeded onto 150-mm dishes and grown in RPMI 1640 (for COLO 205, HT 29 and HL 60 cells) or MEM (for Hep 3B) supplemented with 10% FCS. After the cells had grown to subconfluence, they were rendered quiescent. The cells were released from quiescence with culture medium supplemented with 10% FCS. TB in 0.05% DMSO or 0.05% DMSO without TB was added to the cells at various concentrations and the mixture was allowed to incubate for 17 h. Western blot analysis was performed as previously described (Chen R J, et. al., Toxicology & Applied Pharmacology 2000;169(2):132-41; Lee W S, et. al., Circulation Research 1998;82(8):845-51.). Immunodetection was carried by probing with proper dilutions of specific antibodies at room temperature for 2 h. Anti-p21/Cip1, anti-p27/Kip1, anti-p53, anti-GAPDH monoclonal antibodies (Santa Cruz, Inc. CA); anti-cyclin B1, D1, and D3, anti-cdk2 and cdk4, and PCNA monclonal antibodies (Transduction Laboratories, Lexington, Ky.) were used at a concentration of 1:1,000 dilution. Anti-cyclin A and E polyclonal antibodies (Transduction, San Diego, Calif.) were used at a concentration of 1:250 dilution. The secondary antibodies, alkaline phosphatase-coupled anti-mouse or anti-rabbit antibody (Jackson, Westgrove Pa.), was incubated at room temperature for 1 h at a concentration of 1:5,000 or 1:1,000 dilution, respectively. The specific protein complexes were identified by incubating with the colorigenic substrates (nitro blue tetrazolium, NBT, and 5-bromo-4-chloro-3-indolyl-phosphate, BCIP; Sigma Chemical Co., St. Louis, Mo.). In each experiment, membranes were also probed with anti-GAPDH antibody to correct for differences in protein loading.
# [2] = cited from earlier work
# [3] = TB 60-150 μM, 15 h, dose-dependent
smiles,measurement,setting,value
"CN(C/C=C/C#CC(C)(C)C)Cc1cccc2ccccc12 [TB, 1-Naphthalenemethanamine, N-(6,6-dimethyl-2-hepten-4-ynyl)-N-methyl-, (E)-]",p53 and p21 electrophoretogram bands,"[1]; 60 μM TB alone, 15 h",increased in intensity
same,"p21/Cip1 protein level, time effect",[1]; TB 60 μM after release from quiescence,persistent increase
same,"p27/Kip1 protein levels, time effect","[1]; TB 60 μM, 0-24 h after 10% FCS",maintained at high levels
same,Cyclin A2 and cyclin B levels,"[1]; TB 60 μM, time course",also downregulated
same,level of pRB protein (phosphorylated Rb),"[1]; TB 60 μM, time course",downregulated
same,levels of cyclin D1 and PCNA protein,"[1]; TB 60 μM, time course",not changed
same,"levels of cyclin D3, cdk2 and cdk4 protein","[1]; TB 60 μM, time course",downregulated
same,levels of cyclin E protein,"[1]; TB 60 μM, time course",slightly elevated
same,"levels of cyclin D3 and cdk4, dose effect",[1]; [3],decreased
same,"levels of p53, p21/Cip1 and p27/Kip1 protein, dose effect",[1]; [3],increased
same,tissue accumulation,"[2]; adipose tissues, keratin-rich tissues (dermis, epidermis, nail) and other organ tissues",extensively accumulates
same,tissue concentrations relative to plasma,[2]; as early as 1 day after stop of medication,exceeded that of plasma
